The text below walks through data of ChEMBL document CHEMBL1142514, “Improved synthesis of 6-epi-dictyostatin and antitumor efficacy in mice bearing MDA-MB231 human breast cancer xenografts” (2008).

Type in all cases: functional
The subject of assay [1] is MDA-MB-231. The experiment in a line: Antitumor activity against human MDA-MB-231 cells xenografted in CB17 SCID mouse assessed as two tumor doubling time administered at 20 mg/kg, iv q7d in 3 schedule. For orientation: In xenograft studies the graft and the host belong to different species.
For assay [2], the system named is MDA-MB-231. The experiment in a line: Antitumor activity against human MDA-MB-231 cells xenografted in CB17 SCID mouse assessed as one tumor doubling time administered at 20 mg/kg, iv q7d in 3 schedule.
Assay [3] relates to MDA-MB-231. The experiment in a line: Antitumor activity against human MDA-MB-231 cells xenografted in CB17 SCID mouse assessed as ratio of median tumor volume for drug to control administered at 20 mg/kg, iv q7d in 3 schedule after 14 days.
The test system of assay [4] is MDA-MB-231. The experiment in a line: Antitumor activity against human MDA-MB-231 cells xenografted in CB17 SCID mouse assessed as ratio of median tumor volume for drug to vehicle administered at 20 mg/kg, iv q7d in 3 schedule after 17 days.

Consider `CC(=O)O[C@H]1C(=O)[C@@]2(C)[C@H]([C@H](OC(=O)c3ccccc3)[C@]3(O)C[C@H](OC(=O)[C@H](O)[C@@H](NC(=O)c4ccccc4)c4ccccc4)C(C)=C1C3(C)C)[C@]1(OC(C)=O)CO[C@@H]1C[C@@H]2O` [PACLITAXEL], for which the Activity in assay [1] was 19 days; in assay [2], 7.9 days; in assay [4] it was 31%. Besides, in assay [3], the T/C was 33%.

What is called T/C is the result in the treated group divided by that in the control group, in per cent.
